Experimental data: patent publication US11925632B2, “Isoquinoline derivatives for use in treating GLUT1 deficiency syndrome” (GLIAPHARM SA, priority 2019, dated 2024)
“Also recorded” adds a separate entry of the source.

How the values were obtained:
[1] = tested on: astrocytes transfected with GLUT1 siRNA; assay: 2-deoxyglucose (2DG) uptake, GLUT1 siRNA astrocytes (cellular model of GLUT1-DS); assay type: cell-based, mouse; details: 30 min treatment, 1 or 10 μM, vs vehicle
Description: Astrocytes grown on 12-well plates and transfected with either scramble siRNA or GLUT1 siRNA were used. 1 day after having replaced transfection medium (DIV13), 2DG uptake was measured after treatment for 30 min with Vehicle (0.1% DMSO) or with the compound of the invention (1) (concentrations of 1 or 10 μM). During treatment, 1 mM 2DG was added to the medium for assessment of 2DG uptake. At the end of the stimulation, medium was removed and replaced with 150 μl NaOH 0.1M, and stored at −20° C. After thawing, cells were collected using cell scraper and heated for 40 min at 85° C. Then, 150 ul HCl 0.1M and TAE buffer 200 mM was added to each condition. 20 μl were added to a transparent 96-well plate and 2DG was quantified by addition of a reaction solution containing 50 mM TAE, 50 mM KCl, 0.02% BSA, 0.1 mM NADP, 0.2 U/ml diaphorase, 2 mM resazurin and 20 U/ml glucose-6-phosphate dehydrogenase. Concentration of 2DG in samples were calculated by comparison with standard curve of deoxy-glucose-6-phosphate ranging from 0 to 1 nmoles.
Scramble and GLUT1 siRNA sequences were as following:
Cells were grown in transfection medium for 3 days at 37° C. in a humidified atmosphere containing 5% CO2/95% air. […]
2DG uptake after treatment with Veh or compound of the invention (1) was measured in astrocytes transfected with scramble siRNA or GLUT1 siRNA (FIG. 4A).

C57Bl/6J wild-type mice = assay: In vivo pharmacodynamics, lactate biosensors (cerebral extracellular lactate); parameters: species or system mouse; details: 3 h recording, AUC ratio vs vehicle
Description: (§1) For pharmacodynamics (FIG. 5) and cognition (FIG. 7) experiments, adult male C57Bl/6J wild-type mice weighting 18-28 g (8 weeks of age) were used (Charles River). For ALS mouse models (FIG. 6), G93A SOD1 transgenic male and female mice on B6.SJL1-Gur/J background were used (Jackson Laboratory).
(§2) Animals were housed in groups of 3-5 in polypropylene cages (30×40×15 cm) with wire mesh top in a temperature (22±2° C.) and humidity (55±15%) controlled environment on a 12 hour light cycle (07.00-19.00 h lights on), except after surgeries when animal were housed individually. […]
Cerebral extracellular levels of lactate were monitored in vivo using lactate biosensors (Pinnacle Technology), according to the manufacturer's instructions. […] After surgery, mice were monitored closely and received analgesic treatment for at least 4 days. […] Concentrations of cerebral extracellular lactate were calculated from lactate probe electric signals using post-calibration values. […] Area Under the Curve (AUC) of lactate concentration curves were calculated using Graphpad Prism and the ratio of AUC after drug over Vehicle administration was calculated. Extracellular concentrations of L-lactate were measured in real time in freely moving animals for 3 hours after administration of Vehicle or Compound (1) (FIG. 5).

[2] = tested on: G93A SOD1 transgenic mice; assay: SOD1 G93A mouse ALS model (grip test, survival); assay type: in vivo
Description: as §1, §2
Transgenic mice on B6.SJL1-Gur/J background overexpressing the human mutated gene G93A SOD1 were used. […] F1 pups were genotyped after ear punching at weaning, using quantitative PCR (qPCR), which allowed determining the number of SOD1 copies in each mouse. […] Each mouse's weight was recorded every day throughout the entire treatment, while neuromuscular function was measured once a week. […]
The experiment was conducted in a room with a low light intensity (30 lux) to reduce stressful environment. […] Mice ability to grip the grid (time [s]) was measured in order to assess for their muscle strength and coordination. […]

In the case of COc1cc2ccnc(Nc3ccc(OC(F)(F)F)cc3)c2cc1OC [Example 1, 6,7-dimethoxy-N-(4-(trifluoromethoxy)phenyl)isoquinolin-1-amine], the 2DG uptake [1] is reported as “restored; also recorded: significantly enhances 2DG uptake”, the “Extracellular lactate levels in the brain” value (C57Bl/6J wild-type mice; 10 mg/kg per os) is reported as “significantly increases extracellular lactate levels” and the “Extracellular lactate levels in the brain” value (C57Bl/6J wild-type mice; 100 mg/kg per os) is reported as “significantly increases extracellular lactate levels”. For the same compound, the “Muscle function (grip test), onset of symptoms” value ([2]; 10 mg/kg oral daily from post-natal day 30, measured weekly until 16 weeks of age) was “delayed the onset of the symptoms” and the “Survival (life span, Kaplan-Meier)” value ([2]; 10 mg/kg oral daily from post-natal day 30, vs vehicle) was “significantly increased life span”.
